Reference: ChEMBL document CHEMBL5344418, “Recent developments in antimalarial activities of 4-aminoquinoline derivatives” (Eur J Med Chem, 2023)

Experiments:
Plasmodium falciparum [1] = test: Antimalarial activity against Plasmodium falciparum assessed as reduction in parasite growth incubated for 48 hrs by Giemsa staining based analysis; type: functional, organism-based
Plasmodium falciparum [2] = test: Antiplasmodial activity against Plasmodium falciparum K1; type: functional, organism-based
[3] = Cytotoxicity against African monkey Vero cells assessed as reduction in cell viability incubated for 72 hrs by MTT assay; type: toxicity, cell-based; settings: chlorocebus sabaeus
Plasmodium falciparum [4] = test: Antimalarial activity against chloroquine-sensitive Plasmodium falciparum 3D7 assessed as reduction in parasite growth incubated for 36 hrs by Giemsa staining based microscopic analysis; type: functional, organism-based; settings: 3D7, 36 h
Plasmodium falciparum [5] = test: Antiplasmodial activity against Plasmodium falciparum Dd2 assessed as reduction in parasitic growth incubated for 48 hrs by SYBR Green staining based fluorescence analysis; type: functional, organism-based; settings: Dd2, 48 h
Plasmodium falciparum [6] = test: Antimalarial activity against Plasmodium falciparum Dd2 assessed as reduction in parasitic growth incubated for 48 hrs by SYBR green assay; type: functional, organism-based; settings: Dd2, 48 h
[7] = Cytotoxicity against African green monkey Vero cells; type: toxicity, cell-based; settings: chlorocebus sabaeus
Plasmodium falciparum [8] = test: Antiplasmodial activity against Plasmodium falciparum 3D7; type: functional, organism-based
Plasmodium falciparum [9] = test: Antiplasmodial activity against Plasmodium falciparum 3D7 assessed as reduction in parasite growth by Lactate dehydrogenase assay; type: functional, organism-based
Plasmodium falciparum [10] = test: Antimalarial activity against chloroquine-resistant Plasmodium falciparum W2 assessed as growth inhibition incubated for 48 hrs by flow cytometry based analysis; type: functional, organism-based; settings: W2, 48 h
[11] = Cytotoxicity against African green monkey Vero cells assessed as reduction in cell viability incubated for 24 hrs by fluorescence based analysis; type: toxicity; settings: African green monkey (Chlorocebus sabaeus)
Plasmodium falciparum [12] = test: Antiplasmodial activity against chloroquine-sensitive Plasmodium falciparum 3D7 assessed as parasitic growth inhibition incubated for 72 hrs by SYBR Green staining based fluorescence analysis; type: functional, organism-based; settings: 3D7, 72 h
Plasmodium falciparum [13] = test: Antiplasmodial activity against chloroquine-resistant Plasmodium falciparum W2 assessed as parasitic growth inhibition incubated for 72 hrs by SYBR Green staining based fluorescence analysis; type: functional, organism-based; settings: W2, 72 h

Question: For `NC(S)=NNc1ccnc2cc(Cl)ccc12`, which IC50 (Plasmodium falciparum [1]) is on record?
Answer: 25.4 µM

Question: For `O=[N+]([O-])c1ccc(NNc2ccnc3cc(Cl)ccc23)cc1`, which IC50 (Plasmodium falciparum [2]) is on record?
Answer: 3.26 µM

Question: For `O=C(Cn1cc(COc2ccc(Br)cc2)nn1)NCCNc1ccnc2cc(Cl)ccc12`, which CC50 at 72 h [3] is on record?
Answer: 78.2 µM

Question: And the IC50 (Plasmodium falciparum [4])?
Answer: 0.04 µM

Question: With `COc1ccc2nc(/C=C/c3ccncc3)cc(NCCN(C)C)c2c1` as the compound, how does the IC50 (Plasmodium falciparum [5]) read?
Answer: 0.033 µM

Question: For `COc1ccc2nc(/C=C/c3cccs3)cc(NCCN(C)C)c2c1`, which IC50 (Plasmodium falciparum [6]) is on record?
Answer: 0.096 µM

Question: Which IC50 (Plasmodium falciparum [2]) does the source give for `COc1ccc(Nc2ccnc3cc(Cl)ccc23)cc1` here?
Answer: 4.87 µM

Question: For `O=C(Cn1cc(COc2ccc(Br)cc2)nn1)NCCCNc1ccnc2cc(Cl)ccc12`, which CC50 at 72 h [3] is on record?
Answer: 75.5 µM

Question: And the IC50 (Plasmodium falciparum [4])?
Answer: 38.8 µM

Question: Which CC50 [7] does the source give for `N=C(N=C(N)N)SCCCCNc1ccnc2cc(Cl)ccc12` here?
Answer: > 11 µM

Question: For `CCN(CC)CCC(NCC(C)Nc1ccnc2cc(Cl)ccc12)c1ccc(C)cc1` (stereo unspecified), which IC50 (Plasmodium falciparum [8]) is on record?
Answer: 5.27 µM

Question: Which CC50 [7] does the source give for `N=C(N=C(N)N)SCCNc1ccnc2cc(C(F)(F)F)ccc12` here?
Answer: > 10.9 µM

Question: Which CC50 [7] does the source give for `N=C(N=C(N)N)SCCCCNc1ccnc2cc(C(F)(F)F)ccc12` here?
Answer: > 10.2 µM

Question: Which IC50 (Plasmodium falciparum [8]) does the source give for `Cc1ccc(C(CCN(Cc2ccccc2)Cc2ccccc2)NCC(C)Nc2ccnc3cc(Cl)ccc23)cc1` (stereo unspecified) here?
Answer: 2.59 µM

Question: With `O=C(O)/C=C/c1cccc(Nc2ccnc3cc(Cl)ccc23)c1` as the compound, how does the IC50 (Plasmodium falciparum [9]) read?
Answer: 9.63 µM

Question: Which results are given for `O=C(Cn1cc(COc2ccc(Cl)cc2)nn1)NCCCCCCNc1ccnc2cc(Cl)ccc12`?
Answer: CC50 at 72 h [3]: 7.41 µM; IC50 (Plasmodium falciparum [4]): 263 µM

Question: With `CC(CNC(CCN1CCOCC1)c1ccccc1)Nc1ccnc2cc(Cl)ccc12` (stereo unspecified) as the compound, how does the IC50 (Plasmodium falciparum [8]) read?
Answer: 2.94 µM

Question: Which IC50 (Plasmodium falciparum [5]) does the source give for `COc1ccc2nc(/C=C/c3ccncc3)cc(N3CCOCC3)c2c1` here?
Answer: > 10 µM

Question: For `O=C(Cn1cc(COc2ccc(Cl)cc2)nn1)NCCCNc1ccnc2cc(Cl)ccc12`, which CC50 at 72 h [3] is on record?
Answer: 27.1 µM

Question: And the IC50 (Plasmodium falciparum [4])?
Answer: 90 µM

Question: For `Cc1ccc(OCc2cn(CC(=O)NCCCNc3ccnc4cc(Cl)ccc34)nn2)cc1`, which CC50 at 72 h [3] is on record?
Answer: > 208 µM

Question: And the IC50 (Plasmodium falciparum [4])?
Answer: 91.9 µM

Question: Which IC50 (Plasmodium falciparum [10]) does the source give for `O=C1c2ccc(N3CCCCC3)cc2C(=O)N1CCCNc1ccnc2cc(Cl)ccc12` here?
Answer: 0.176 µM

Question: And the IC50 at 24 h [11]?
Answer: 55.8 µM

Question: Which IC50 (Plasmodium falciparum [10]) does the source give for `O=C1c2cccc(N3CCOCC3)c2C(=O)N1CCCNc1ccnc2cc(Cl)ccc12` here?
Answer: 0.276 µM

Question: What about the IC50 at 24 h [11] of the same compound?
Answer: 222 µM

Question: With `O=C(/C=C/c1cccc(Nc2ccnc3cc(Cl)ccc23)c1)OC1CCCCC1` as the compound, how does the IC50 (Plasmodium falciparum [9]) read?
Answer: 16.4 µM

Question: Which IC50 (Plasmodium falciparum [9]) does the source give for `COC(=O)/C=C/c1ccccc1Nc1ccnc2cc(Cl)ccc12` here?
Answer: 2.32 µM

Question: What does the source list for `OB1OCc2ccc(OCc3cn(-c4ccnc5ccc(Cl)cc45)nn3)cc21`?
Answer: IC50 (Plasmodium falciparum [12]): 4.87 µM; IC50 (Plasmodium falciparum [13]): 5.22 µM

Question: With `COc1ccc(/C(C)=N/C(=S)NNc2ccnc3cc(Cl)ccc23)cc1OC` as the compound, how does the IC50 (Plasmodium falciparum [1]) read?
Answer: 38.7 µM

Question: With `Clc1ccc2c(Nc3nc[nH]n3)ccnc2c1` as the compound, how does the IC50 (Plasmodium falciparum [1]) read?
Answer: 42.6 µM

Question: With `N=C(N=C(N)N)SCCCNc1ccnc2cc(C(F)(F)F)ccc12` as the compound, how does the CC50 [7] read?
Answer: > 10.6 µM

Question: For `COc1ccc(C(CCN(Cc2ccccc2)Cc2ccccc2)NCC(C)Nc2ccnc3cc(Cl)ccc23)cc1` (stereo unspecified), which IC50 (Plasmodium falciparum [8]) is on record?
Answer: 2.4 µM

Question: With `Cc1ccc(C(CCN2CCOCC2)NCC(C)Nc2ccnc3cc(Cl)ccc23)cc1` (stereo unspecified) as the compound, how does the IC50 (Plasmodium falciparum [8]) read?
Answer: 2.94 µM

Question: For `COc1ccc2nc(/C=C/c3ccc(Br)cc3)cc(NCCN(C)C)c2c1`, which IC50 (Plasmodium falciparum [6]) is on record?
Answer: 0.04 µM

Question: For `CCOC(=O)/C=C/c1cccc(Nc2ccnc3cc(Cl)ccc23)c1`, which IC50 (Plasmodium falciparum [9]) is on record?
Answer: 14.4 µM

Question: With `COc1ccc2nc(/C=C/c3ccc([N+](=O)[O-])cc3)cc(N3CCN(CCO)CC3)c2c1` as the compound, how does the IC50 (Plasmodium falciparum [6]) read?
Answer: 0.672 µM

Question: Which IC50 (Plasmodium falciparum [8]) does the source give for `CCN(CC)CCC(NCC(C)Nc1ccnc2cc(Cl)ccc12)c1ccccc1` (stereo unspecified) here?
Answer: 3.84 µM

Question: With `C/C(=N\C(=S)NNc1ccnc2cc(Cl)ccc12)c1ccc2ccccc2c1` as the compound, how does the IC50 (Plasmodium falciparum [1]) read?
Answer: 79.9 µM

Question: With `O=C1c2cccc(N3CCCCC3)c2C(=O)N1CCNc1ccnc2cc(Cl)ccc12` as the compound, how does the IC50 (Plasmodium falciparum [10]) read?
Answer: 0.158 µM

Question: And the IC50 at 24 h [11]?
Answer: 28.8 µM

Question: Which IC50 (Plasmodium falciparum [6]) does the source give for `COc1ccc2nc(/C=C/c3ccc([N+](=O)[O-])cc3)cc(N3CCCC3)c2c1` here?
Answer: 0.493 µM

Question: Which IC50 (Plasmodium falciparum [9]) does the source give for `O=C(O)/C=C/c1ccc(Nc2ccnc3cc(Cl)ccc23)cc1` here?
Answer: 18.5 µM

Question: With `N=C(N=C(N)N)SCCNc1ccnc2cc(Cl)ccc12` as the compound, how does the CC50 [7] read?
Answer: > 11.8 µM

Question: Which IC50 (Plasmodium falciparum [9]) does the source give for `COC(=O)/C=C/c1cccc(Nc2ccnc3cc(Cl)ccc23)c1` here?
Answer: 1.81 µM

Question: With `CCN(CC)CCC(NCC(C)Nc1ccnc2cc(Cl)ccc12)c1ccc(OC)cc1` (stereo unspecified) as the compound, how does the IC50 (Plasmodium falciparum [8]) read?
Answer: 2.41 µM

Question: Which IC50 (Plasmodium falciparum [5]) does the source give for `COc1ccc2nc(/C=C/c3ccncc3)cc(N3CCCCC3)c2c1` here?
Answer: 4.9 µM

Question: For `O=C1c2ccc(N3CCOCC3)cc2C(=O)N1CCCNc1ccnc2cc(Cl)ccc12`, which IC50 (Plasmodium falciparum [10]) is on record?
Answer: 0.118 µM

Question: And the IC50 at 24 h [11]?
Answer: 222 µM

Question: With `O=C(Cn1cc(COc2ccc(Br)cc2)nn1)NCCCCCCNc1ccnc2cc(Cl)ccc12` as the compound, how does the CC50 at 72 h [3] read?
Answer: 112 µM

Question: And the IC50 (Plasmodium falciparum [4])?
Answer: 0.307 µM

Question: Which IC50 (Plasmodium falciparum [12]) does the source give for `O=Cc1cc(OCc2cn(CCN3CCN(c4ccnc5cc(Cl)ccc45)CC3)nn2)ccc1Br` here?
Answer: 8.34 µM

Question: And the IC50 (Plasmodium falciparum [13])?
Answer: 8.26 µM

Question: With `COc1ccc2nc(/C=C/c3ccncc3)cc(Nc3ccccc3)c2c1` as the compound, how does the IC50 (Plasmodium falciparum [5]) read?
Answer: 0.965 µM
